Assay results: PMC8348766, “Enhancement of Anti-Tumoral Immunity by β-Casomorphin-7 Inhibits Cancer Development and Metastasis of Colorectal Cancer” (International Journal of Molecular Sciences, 2021)
No end group written: not given here.

Assays:
[1] = target: T1, CD10 (Homo sapiens, UniProt P08473); experiment: Degradation of 125I-labeled BCM by CD10; format: in vitro ADME
Description: Figure 1 Effect of BCM on spleen cells and degradation of BCM by CD10. (A) Effect of BCM on subpopulations of spleen cells. Spleen cells of BALB/c mice were treated with BCM (0.1 μg/mL) for 48 h. Differentiation markers were examined by ELISA. (B) Effect of CD10 on degradation of BCM. ^125I-labeled BCM (50 μg) was incubated with CD10 for 16 h. Intact BCM bound to anti-BCM antibody and degraded peptides were separated with electrophoresis and detected by autoradiography. […] (E) Time course of degradation of BCM by CD10. ^125I-labeled BCM (50 μg) was incubated with CD10 (60 μg) and TOP (1 μM). (F) Effect of degraded BCM on subset of spleen cells. Error bar, standard deviation from three independent trials. BCM, β-casomorphin-7; cluster of differentiation; ELISA, enzyme-linked immunosorbent assay; Treg, regulatory T cell; tyr-pro, 1st and 2nd amino acids of BCM; Ab, anti-BCM antibody; TOP, thiorphan.
The N-terminal tyrosine of BCM was labeled with ^125I, and then treated with CD10, followed by treatment with an anti-BCM antibody and electrophoresis in a 15–25% polyacrylamide gel. […] It is considered that a short fragment of tyr-pro at the N-terminal of ^125I-labeled BCM was cleaved. […] In contrast, no decrease in intact BCM was observed when it was additionally treated with TOP. Of note, the CD10 degradation product of BCM had no effect on the lymphocyte subset (Figure 1F).
BCM was purchased from Sigma. Di-amino acid peptide (tyr-pro; 1st and 2nd amino acids of BCM) was synthesized by Peptide Institute Inc. (Ibaraki, Japan). BCM and the tyr-pro peptide were labeled by chloramine-T method with ^125I (J-RAM, Tokyo, Japan) using Pierce™ iodination beads (Thermo Fisher). Labeled BCM was incubated with CD10 in neutral peptidase assay buffer (40 mM Tris-HCl pH 7.1, 4 mM MgCl2, 0.5 mM ZnCl2) for 16 h. Thereafter, the solution was incubated with anti-BCM antibody (Abnova, Taipei City, Taiwan) at 37 °C for 2 h. […] The radioactivity of the solution was also measured by a fluid scintillation counter (LSC-8000, Hitachi, Tokyo, Japan).

[2] = cited from earlier work
Source text: BCM also acts on the immune system. […] Conversely, BCM suppresses lymphocyte proliferation at low concentrations, but promotes it at high concentrations above 10^−7 M [18] by activating the T cell helper (Th)-2 pathway, which induces an inflammatory response in the gut. […] Therefore, under such physiological conditions, BCM presents only in low concentrations and might suppress the immune syst ... || The CD10 that we examined in this study has various alternative names, including membrane metalloendopeptidase, common acute lymphocytic leukemia antigen, neprilysin, neutral endopeptidase, enkephalinase, and atriopeptidase [NCBI, OMIM]. CD10 is known to degrade short peptides such as natriuretic peptides, angiotensin II, bradykinin, apelins, substance P, and adrenomedullin [38]. CD10 expression is widespread in the intestinal mucosa. Incubation of BCM with brush border of the intestinal mucosa degrades 95% of BCM in 24 h.

[3] = target: T1, CD10; experiment: Suppression of CD10-mediated BCM degradation by thiorphan; format: biochemical; details: TOP 1 μM in combination with CD10; 125I-labeled BCM 50 μg

T1 sequence (P08473 whole entry, species assumed): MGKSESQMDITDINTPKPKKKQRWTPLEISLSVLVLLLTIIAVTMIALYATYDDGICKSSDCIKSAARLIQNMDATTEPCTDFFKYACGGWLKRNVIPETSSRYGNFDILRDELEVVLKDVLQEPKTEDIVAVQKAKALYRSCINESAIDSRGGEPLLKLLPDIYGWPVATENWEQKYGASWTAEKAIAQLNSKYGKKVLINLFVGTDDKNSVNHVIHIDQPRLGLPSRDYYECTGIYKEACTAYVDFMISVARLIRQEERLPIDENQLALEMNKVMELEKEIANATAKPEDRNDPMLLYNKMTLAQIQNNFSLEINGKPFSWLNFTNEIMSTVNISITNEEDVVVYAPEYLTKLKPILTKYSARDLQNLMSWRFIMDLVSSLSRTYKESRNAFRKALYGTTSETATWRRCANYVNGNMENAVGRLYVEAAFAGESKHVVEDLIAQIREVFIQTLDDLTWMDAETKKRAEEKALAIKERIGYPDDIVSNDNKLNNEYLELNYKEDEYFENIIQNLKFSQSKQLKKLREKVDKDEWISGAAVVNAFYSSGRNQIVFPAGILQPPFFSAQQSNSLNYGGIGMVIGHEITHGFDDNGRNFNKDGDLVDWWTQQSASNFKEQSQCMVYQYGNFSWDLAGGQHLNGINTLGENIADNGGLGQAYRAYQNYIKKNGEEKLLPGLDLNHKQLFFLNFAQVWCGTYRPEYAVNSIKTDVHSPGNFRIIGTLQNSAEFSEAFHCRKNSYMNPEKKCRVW

## YPFPGPI [BCM, β-Casomorphin-7]
[1]; 125I label on N-terminal tyrosine, position in polyacrylamide gel compared with labeled marker
  degraded fragment observed after CD10 treatment: tyr-pro
[1]; CD10 60 μg/mL + TOP 1 μM, time course, 125I-labeled BCM 50 μg
  change in intact BCM over time with CD10 plus TOP: no decrease
[1]; CD10 60 μg/mL, time course, 125I-labeled BCM 50 μg, Tris-HCl pH 7.1 buffer, electrophoresis, autoradiography
  time after which intact BCM completely disappeared: 24 h
[2]; 24 h
  fraction of BCM degraded on incubation with brush border of the intestinal mucosa: 95%
[2]
  fraction of BCM degraded by digestive juice and jejunal brush border: 95%

## O=C(O)CNC(=O)C(CS)Cc1ccccc1 (stereo not drawn) [TOP, thiorphan]
[3]
  degradation of BCM by CD10 in presence of TOP: completely suppressed
